In ChEMBL document CHEMBL1141743, “Malyngamides M and N from the Hawaiian Red Alga Gracilaria coronopifolia” (J Nat Prod, 1998):

Assay: Cytotoxicity against mouse NB cells
Format: functional, cell-based

Row | Structure (SMILES) | IC50 [µM]
1 | CCCCCCC[C@@H](C/C=C/CCC(=O)N(C)C/C(=C/Cl)[C@]12O[C@H]1CC=C(C)C2=O)OC [MALYNGAMIDE N] | 12
2 | CCCCCCC[C@@H](C/C=C/CCC(=O)N(C)C/C(=C/Cl)c1cccc(C)c1O)OC [MALYNGAMIDE M] | > 20
3 | CCCCCCC[C@@H](C/C=C/CCC(=O)N(C)C/C(=C/Cl)[C@]12O[C@H]1C[C@@H](OC(C)=O)[C@@H](C)C2=O)OC | 12
